{"source": "patent US9452992B2", "about": "(priority 2011, dated 2016)", "system": "VSV particles pseudotyped with EboV GP on CHO cells overexpressing NPC1", "assay_type": "cell-based, Chinese hamster"}
{"smiles": "O=C(CC12CC3CC(CC(C3)C1)C2)NCC(=O)N1CCN(Cc2ccccc2)CC1", "note": "[3.0, 2-((3r,5r,7r)-adamantan-1-yl)-N-(2-(4-benzylpiperazin-1-yl)-2-oxoethyl)acetamide]", "values": [{"measurement": "effect of NPC1 overexpression on antiviral activity", "value": "conferred resistance"}]}
{"smiles": "COC(=O)c1ccc(COc2ccccc2CN2CCN(C(=O)CNC(=O)CC34CC5CC(CC(C5)C3)C4)CC2)cc1", "note": "[compound 3.48, methyl 4-((2-((4-(2-(2-((3r,5r,7r)-adamantan-1-yl)acetamido)acetyl)piperazin-1-yl)methyl)phenoxy)methyl)benzoate]", "values": [{"measurement": "effect of NPC1 overexpression on antiviral activity", "value": "conferred resistance"}]}
